In US20250361268A1, “NOVEL ANTI-INFLAMMATORY PEPTIDE AND USE THEREOF” (NOVACELL TECHNOLOGY INC., priority 2022, published 2025):
pEC50: −log10 of the molar value. Peptide text beside a SMILES is read from it.

Tests used:
FPR2 = biological target: T1, FPR2 (Homo sapiens, UniProt P25090); assay: Change in calcium activity by peptide (Fura-2) in RBL cells overexpressing FPR2; type: cell-based; conditions: calcium activity (Fura-2), graded per Table 3, read-out: EC50 for [Ca^2+] FPR2
T1 construct: expressed in transfected cells; host or cells: RBL cells (RBL-FPR2)
T1 sequence (P25090 1-351): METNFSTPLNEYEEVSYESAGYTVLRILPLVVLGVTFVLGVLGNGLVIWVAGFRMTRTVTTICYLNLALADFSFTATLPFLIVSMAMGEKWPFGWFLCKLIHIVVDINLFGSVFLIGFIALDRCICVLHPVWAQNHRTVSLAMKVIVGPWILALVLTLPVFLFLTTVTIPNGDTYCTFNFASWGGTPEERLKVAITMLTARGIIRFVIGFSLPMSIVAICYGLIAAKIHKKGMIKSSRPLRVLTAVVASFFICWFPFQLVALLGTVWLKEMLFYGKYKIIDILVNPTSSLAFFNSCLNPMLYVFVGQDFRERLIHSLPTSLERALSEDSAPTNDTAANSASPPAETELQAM
Method: The present inventors observed changes in calcium ion permeability to confirm whether the immunomodulatory peptide candidates prepared according to one example of the present invention activate the immune function of a living organism. Specifically, the concentration of calcium ions in cells was measured to confirm whether the peptides activate FPR2.
A peptide dissolved in water or 50% DMSO at a concentration of 0.5 mM was prepared by diluting it to an appropriate concentration in HBSS (Sigma, #55037C)+20 mM HEPES buffer.
In this experiment, the cells were cultured in DMEM (Lonza, #BE12-604F) containing 10% fetal bovine serum (FBS) and 1% penicillin-streptomycin under conditions of 37° C. and 5% CO2.
(§1) The day before measuring calcium activity, the cells were prepared at 3×10^5 cells per well in a 96-well flat clear bottom black plate (Costar, #3603). The prepared cells were treated with a Fura-2 QBT calcium kit (component A; Molecular Devices, #8197) at the same volume per well. After incubation at 37° C. for 1 hour, the cells were incubated in a dark room at room temperature for 30 minutes. After the Fura-2-treated cells, the prepared peptide, and a dedicated tip were placed at each section of FlexStation 3 Multi-Mode Microplate Reader (Molecular Devices, #Flex3), changes in calcium activity caused by the peptides were measured using SoftMax Pro 7 Software (Molecular Devices, #FLEX3-INSTALL-OS).

FPR1 = biological target: T2, FPR1 (Homo sapiens, UniProt P21462); assay: Change in calcium activity by peptide, FPR1 activation effect; type: cell-based; conditions: calcium activity (Fura-2), graded per Table 3, read-out: EC50 for [Ca^2+] FPR1
T2 sequence (P21462 1-350): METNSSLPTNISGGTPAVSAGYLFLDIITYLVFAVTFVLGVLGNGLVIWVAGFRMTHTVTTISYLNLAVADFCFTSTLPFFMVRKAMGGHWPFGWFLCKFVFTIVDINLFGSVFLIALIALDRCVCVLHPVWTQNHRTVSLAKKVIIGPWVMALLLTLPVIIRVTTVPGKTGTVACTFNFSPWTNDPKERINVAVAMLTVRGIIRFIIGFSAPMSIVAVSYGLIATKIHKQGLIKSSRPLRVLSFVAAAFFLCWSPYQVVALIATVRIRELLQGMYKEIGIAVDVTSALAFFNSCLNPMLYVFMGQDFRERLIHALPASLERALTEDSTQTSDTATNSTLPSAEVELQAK
Method: as §1, with “#FLEX3-INSTALL-OS). […]” for “#FLEX3-INSTALL-OS).”

pEC50 (FPR2)	pEC50 (FPR1)	Compound
7.00 to 7.96	< 5.00	CSCC[C@@H](NC(=O)[C@H](Cc1ccc(O)cc1)NC(=O)[C@H](CCCNC(=N)N)NC(=O)[C@H](Cc1ccc(O)cc1)NC(=O)[C@H](CCCNC(=N)N)NC(=O)[C@H](Cc1c[nH]c2ccccc12)NC(=O)[C@@H](N)CCCNC(=N)N)C(N)=O [Peptide 48] (HELM PEPTIDE1{R.W.R.Y.R.Y.[dM].[am]}$$$$V2.0)
> 8.00	5.00 to 6.00	CSCC[C@H](NC(C)=O)C(=O)N[C@@H](CCCNC(=N)N)C(=O)N[C@@H](Cc1ccc(O)cc1)C(=O)N[C@@H](CCCCN)C(=O)N[C@H](C(=O)N[C@H](CCSC)C(N)=O)C(C)C [Peptide 14] (HELM PEPTIDE1{[ac].M.R.Y.K.V.[dM].[am]}$$$$V2.0)
> 8.00	< 5.00	CCCC(=O)N1CCC[C@H]1C(=O)N[C@@H](CCSC)C(=O)N[C@@H](CCCNC(=N)N)C(=O)N[C@@H](Cc1ccc(O)cc1)C(=O)N[C@@H](CCCCN)C(=O)N[C@@H](Cc1ccc(O)cc1)C(=O)N[C@H](CCSC)C(N)=O [Peptide 47] (HELM PEPTIDE1{[CCCC(=O)[*:2]].P.M.R.Y.K.Y.[dM].[am]}$$$$V2.0)
> 8.00	6.00 to 7.00	CSCC[C@H](N)C(=O)N[C@@H](CCCNC(=N)N)C(=O)N[C@@H](Cc1ccc(O)cc1)C(=O)N[C@@H](Cc1ccc(O)cc1)C(=O)N1CCC[C@H]1C(=O)N[C@H](CCSC)C(N)=O [Peptide 120] (HELM PEPTIDE1{M.R.Y.Y.P.[dM].[am]}$$$$V2.0)
7.00 to 7.96	< 5.00	CCCCCCCC(=O)N[C@H](C(=O)N[C@@H](CCCCN)C(=O)N[C@@H](Cc1ccc(O)cc1)C(=O)N[C@@H](CCCCN)C(=O)N1CCC[C@H]1C(=O)N[C@H](CCSC)C(N)=O)[C@@H](C)CC [Peptide 145] (HELM PEPTIDE1{[CCCCCCCC(=O)[*:2]].I.K.Y.K.P.[dM].[am]}$$$$V2.0)
7.00 to 7.96	< 5.00	CSCC[C@@H](NC(=O)[C@@H](NC(=O)[C@H](CCCNC(=N)N)NC(=O)[C@H](Cc1ccc(O)cc1)NC(=O)[C@H](CCCNC(=N)N)NC(=O)[C@H](Cc1c[nH]c2ccccc12)NC(=O)[C@@H](N)CCCNC(=N)N)[C@@H](C)O)C(N)=O [Peptide 153] (HELM PEPTIDE1{R.W.R.Y.R.T.[dM].[am]}$$$$V2.0)
> 8.00	< 5.00	CSCC[C@H](NC(=O)[C@@H](N)CCCNC(=N)N)C(=O)N[C@@H](CCCNC(=N)N)C(=O)N[C@@H](Cc1ccc(O)cc1)C(=O)N[C@@H](CCCCN)C(=O)N1CCC[C@H]1C(=O)N[C@H](CCSC)C(N)=O [Peptide 50] (HELM PEPTIDE1{R.M.R.Y.K.P.[dM].[am]}$$$$V2.0)
> 8.00	5.00 to 6.00	CCCC(=O)N[C@@H](CCCNC(=N)N)C(=O)N[C@@H](Cc1c[nH]c2ccccc12)C(=O)N[C@@H](CCCNC(=N)N)C(=O)N[C@@H](Cc1ccc(O)cc1)C(=O)N[C@@H](CCCCN)C(=O)N1CCC[C@H]1C(=O)N[C@H](CCSC)C(N)=O [Peptide 75] (HELM PEPTIDE1{[CCCC(=O)[*:2]].R.W.R.Y.K.P.[dM].[am]}$$$$V2.0)
> 8.00	< 5.00	CSCC[C@@H](NC(=O)[C@@H](NC(=O)[C@H](CCCCN)NC(=O)[C@H](Cc1ccc(O)cc1)NC(=O)[C@H](CCCCN)NC(=O)[C@@H]1CCCN1)C(C)C)C(N)=O [Peptide 138] (HELM PEPTIDE1{P.K.Y.K.V.[dM].[am]}$$$$V2.0)
> 8.00	< 5.00	CSCC[C@H](NC(=O)[C@@H]1CCCN1C(C)=O)C(=O)N[C@@H](CCCNC(=N)N)C(=O)N[C@@H](Cc1ccc(O)cc1)C(=O)N[C@@H](CCCCN)C(=O)N1CCC[C@H]1C(=O)N[C@H](CCSC)C(N)=O [Peptide 63] (HELM PEPTIDE1{[ac].P.M.R.Y.K.P.[dM].[am]}$$$$V2.0)
> 8.00	< 5.00	CSCC[C@H](NC(=O)[C@@H]1CCCN1C(C)=O)C(=O)N[C@@H](CCCCN)C(=O)N[C@@H](Cc1ccc(O)cc1)C(=O)N[C@@H](CCCCN)C(=O)N[C@H](C(=O)N[C@H](CCSC)C(N)=O)C(C)C [Peptide 26] (HELM PEPTIDE1{[ac].P.M.K.Y.K.V.[dM].[am]}$$$$V2.0)
7.00 to 7.96	< 5.00	CCCC(=O)N[C@@H](CCSC)C(=O)N[C@@H](CCCNC(=N)N)C(=O)N[C@@H](Cc1ccc(O)cc1)C(=O)N[C@@H](CCCCN)C(=O)N[C@@H](Cc1ccc(O)cc1)C(=O)N[C@H](CCSC)C(N)=O [Peptide 43] (HELM PEPTIDE1{[CCCC(=O)[*:2]].M.R.Y.K.Y.[dM].[am]}$$$$V2.0)
> 8.00	< 5.00	CSCC[C@H](NC(=O)[C@H](Cc1c[nH]cn1)NC(C)=O)C(=O)N[C@@H](CCCCN)C(=O)N[C@@H](Cc1ccc(O)cc1)C(=O)N[C@@H](CCCCN)C(=O)N[C@H](C(=O)N[C@H](CCSC)C(N)=O)C(C)C [Peptide 22] (HELM PEPTIDE1{[ac].H.M.K.Y.K.V.[dM].[am]}$$$$V2.0)
> 8.00	< 5.00	CC[C@H](C)[C@H](NC(C)=O)C(=O)N[C@@H](CCCCN)C(=O)N[C@@H](Cc1ccc(O)cc1)C(=O)N[C@@H](CCCCN)C(=O)N1CCC[C@H]1C(=O)N[C@H](CCSC)C(N)=O [Peptide 143] (HELM PEPTIDE1{[ac].I.K.Y.K.P.[dM].[am]}$$$$V2.0)
7.00 to 7.96	< 5.00	CSCC[C@H](NC(C)=O)C(=O)N[C@@H](CCCNC(=N)N)C(=O)N[C@@H](Cc1ccc(O)cc1)C(=O)N[C@@H](CCCCN)C(=O)N[C@@H](Cc1ccc(O)cc1)C(=O)N[C@H](CCSC)C(N)=O [Peptide 42] (HELM PEPTIDE1{[ac].M.R.Y.K.Y.[dM].[am]}$$$$V2.0)
> 8.00	5.00 to 6.00	CSCC[C@@H](NC(=O)[C@@H](NC(=O)[C@H](Cc1ccc(O)cc1)NC(=O)[C@H](Cc1ccc(O)cc1)NC(=O)[C@H](CCCCN)NC(=O)[C@H](Cc1c[nH]c2ccccc12)NC(=O)[C@@H](N)CCCCN)C(C)C)C(N)=O [Peptide 96] (HELM PEPTIDE1{K.W.K.Y.Y.V.[dM].[am]}$$$$V2.0)
> 8.00	< 5.00	CSCC[C@H](N)C(=O)N[C@@H](CCCNC(=N)N)C(=O)N[C@@H](Cc1ccc(O)cc1)C(=O)N[C@@H](CCCCN)C(=O)N[C@@H](Cc1ccc(O)cc1)C(=O)N[C@H](CCSC)C(N)=O [Peptide 41] (HELM PEPTIDE1{M.R.Y.K.Y.[dM].[am]}$$$$V2.0)
> 8.00	< 5.00	CCCC(=O)N[C@@H](Cc1c[nH]cn1)C(=O)N[C@@H](Cc1c[nH]c2ccccc12)C(=O)N[C@@H](CCCCN)C(=O)N[C@@H](Cc1ccc(O)cc1)C(=O)N[C@@H](CCCCN)C(=O)N[C@@H](Cc1ccc(O)cc1)C(=O)N[C@H](CCSC)C(N)=O [Peptide 37] (HELM PEPTIDE1{[CCCC(=O)[*:2]].H.W.K.Y.K.Y.[dM].[am]}$$$$V2.0)
> 8.00	< 5.00	CCCC(=O)N1CCC[C@H]1C(=O)N[C@@H](CCSC)C(=O)N[C@@H](CCCNC(=N)N)C(=O)N[C@@H](Cc1ccc(O)cc1)C(=O)N[C@@H](CCCCN)C(=O)N1CCC[C@H]1C(=O)N[C@H](CCSC)C(N)=O [Peptide 64] (HELM PEPTIDE1{[CCCC(=O)[*:2]].P.M.R.Y.K.P.[dM].[am]}$$$$V2.0)
> 8.00	< 5.00	CCCCCCCC(=O)N[C@@H](Cc1c[nH]cn1)C(=O)N[C@@H](CCSC)C(=O)N[C@@H](CCCNC(=N)N)C(=O)N[C@@H](Cc1ccc(O)cc1)C(=O)N[C@@H](CCCCN)C(=O)N1CCC[C@H]1C(=O)N[C@H](CCSC)C(N)=O [Peptide 61] (HELM PEPTIDE1{[CCCCCCCC(=O)[*:2]].H.M.R.Y.K.P.[dM].[am]}$$$$V2.0)
